Reference: US20170209373A1, “MULTIFUNCTIONAL POLYMERIC NANOPARTICLE FOR DIAGNOSIS OR TREATMENT OF CEREBRAL DISEASES AND A PREPARATION METHOD THEREOF” (KOREA INSTITUTE OF SCIENCE AND TECHNOLOGY, priority 2016, published 2017)

Tested on: luciferase-expressing U-87 MG cells
Assay: Cancer treating effect in brain tumor model (bioluminescence signals)
Type: in vivo, mouse
Procedure: The NP-cur aqueous dispersion prepared according to Example 1-1 was intravenously injected daily at a dose of 200 μL from day 3 of the transplantation of the cancer cells in the brain tumor model prepared according to Example 3-1. […] For the control groups to which the drug was not administered, a group (control of FIG. 11) to which the F-127 aqueous solution was intravenously injected daily for 3 weeks at a dose of 200 μL, and a group (free curcumin of FIG. 11) to which curcumin which was not loaded in the polymeric nanoparticles but was dissolved in an organic solvent, dimethyl sulfoxide (DMSO, Daejung Chemicals & Metals Co., LTD., Korea), was intraperitoneally injected at a dosage of 360 mg/kg daily for 3 weeks was selected to observe the bioluminescence signals in the same manner as in the NP-cur administration experimental group. Finally, the bioluminescence signals observed in the two control groups and experimental group and the results of comparative analysis thereof are shown in FIG. 11.

In the case of `COc1cc(/C=C/C(=O)CC(=O)/C=C/c2ccc(O)c(OC)c2)ccc1O` [curcumin], the “effect on tumor growth” value (NP-cur 0.2 mg/kg/d i.v., curcumin solution 360 mg/kg/d i.p.) is reported as “only slightly slowed” and the “bioluminescence intensity of brain tumor over time (days 7, 14, 21)” value (NP-cur 200 μL i.v. daily (0.2 mg/kg/d curcumin), free curcumin in DMSO i.p. 360 mg/kg daily for 3 weeks) is reported as “still showed a large signal increase”.
